Here are results for nine compounds from PubChem BioAssay (NCI).

“And” between values parts separate entries of the source, which are not always exact repeats. Equal values may be shown once.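 Grown in 96-well plates, cells were treated for 48 hours with each compound at five concentrations. Insufficient inhibition: endpoint recorded as highest concentration tested. GI50 is the concentration that inhibits growth by half. TGI is the concentration that stops growth completely.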

Common to all, as to assay: NCI anticancer screen, dose series, 48 h
The subject of test [1] is OVCAR-5 ovarian.
Test [2] has as its system HS 578T breast.
For test [3], the system named is BT-549 breast.
The test system of test [4] is RXF 393 renal.
In test [5] the test system is NCI-H226 lung.
Test [6] concerns UACC-257 melanoma.
Test [7] relates to SK-MEL-5 melanoma.
Test [8] concerns HT29 colon.
Test [9] deals with TK-10 renal.
Test [10] concerns NCI-H460 lung.

With `COc1nnc2ccc(N3CCC(c4ccc(OCCN5CCN(C)C(=O)[C@H]5C)cc4)CC3)nn12`, the GI50 was 0.492 µM in test [1]; 0.0419 µM in test [2]; 1.87 µM in [3]; 3.85 µM in test [4]; 2.3 µM in test [5]; 0.187 µM in test [6]. Besides, the GI50 in test [7] was 0.155 µM; in test [8], 0.0392 µM; in [9], 0.0555 µM; in [10], 0.373 µM. Moreover, the TGI in test [1] is over 100 µM; in test [2], over 62.7 µM; in test [3] it was over 100 µM; in test [4], over 100 µM; in test [5], over 67.7 µM; in test [6] it was over 100 µM. In addition, the TGI in test [7] was 13.7 µM; in [8], over 100 µM; in test [9], over 70.2 µM; in [10], over 100 µM.

As for `NC(=S)c1c(N)n(C2OC(CO)C(O)C2O)c2ncnc(N)c12` (centres undefined), the GI50 in test [1] was 0.342 µM; in test [2], 0.223 µM; in test [3], 0.17 µM; in test [4], 0.237 µM; in test [5] it was 0.695 µM; in [6], 0.729 µM. For the same compound, the GI50 in [7] was 0.162 µM; in [8], 0.147 µM; in test [9], 0.297 µM; in test [10] it was 0.2 µM. In addition, the TGI in test [1] came out at 2.92 µM; in test [2], 0.648 µM; in test [3], 0.475 µM; in [4] it was 0.557 µM; in test [5], 16 µM; in [6], 4.8 µM. Also, the values for the TGI in [7], in test [8] and in test [9] were 2.05 µM, over 40.9 µM and 3.56 µM, respectively.

Take `CC1=C(C(=O)Nc2ccc(Cl)c(C(=O)OC(C)C)c2)SCCO1`: the TGI in test [1] is 75.3 µM; in test [2], 73.9 µM; in [3] it was over 100 µM; in test [4], over 97.7 µM; in test [5], over 77.4 µM; in [6], over 89.8 µM. The TGI in [7] is 81.4 µM; in test [8], 50.8 µM; in [9], over 100 µM; in test [10], 99.6 µM.

`CCC(=O)c1c(C(F)(F)F)n([O-])c2cc(F)c(F)cc2[n+]1=O`: the GI50 in test [1] was 1.32 µM; in [2], 1.79 µM; in [3], 1.52 µM; in test [4], 1.37 µM; in test [5] it was 0.502 µM; in [6], 1.5 µM. The GI50 was 1.27 µM in test [7], 0.228 µM in test [8], 1.05 µM in test [9] and 1.76 µM in test [10]. Also, the TGI amounted to 2.75 µM in test [1]; 5.82 µM in test [2]; 3.05 µM in test [3]; 3.25 µM in [4]; 0.991 µM in [5]; 2.98 µM in test [6]. The TGI is 2.74 µM in test [7], 0.492 µM in test [8], 2.39 µM in [9] and 4.89 µM in [10].

In the case of `Cc1ccc(S(=O)(=O)NC(CN)C(=O)O)cc1` (centres undefined), the TGI in [1], in [2], in test [3], in test [4], in [5] and in test [6] was over 100 µM each time. Also, the TGI in test [7], in [8], in [9] and in test [10] was over 100 µM throughout.

In the case of `Cc1cc([N+](=O)[O-])c2ccccc2[n+]1[O-]`, the GI50 in [1] is 2.02 µM and 2.26 µM; in [2], 1.18 µM and 0.989 µM; in [3], 0.216 µM and 0.388 µM; in test [4], 0.181 µM and 0.17 µM; in [5], 0.571 µM and 0.927 µM; in test [6], 1.71 µM and 1.49 µM. Moreover, the GI50 in test [7] is 0.171 µM and 0.157 µM; in test [8], 0.066 µM and 0.0948 µM; in test [9], 0.187 µM and 0.21 µM; in test [10], 0.0307 µM and 0.0282 µM. For the same compound, the TGI in test [1] is 7.21 µM and 7.12 µM; in test [2], 5.74 µM and 4.8 µM; in [3] it was 0.879 µM and 1.63 µM; in test [4], 0.455 µM and 0.512 µM; in test [5], 3.27 µM and 4.62 µM; in test [6], 4.45 µM and 4.7 µM. Further, the TGI is 0.334 µM and 0.355 µM in test [7]; 0.328 µM and 0.393 µM in [8]; 0.541 µM and 0.623 µM in [9]; 0.129 µM and 0.109 µM in test [10].

In the case of `NS(=O)(=O)OCCCCCCCOS(N)(=O)=O`, the TGI in test [1] was found to be 1400 µM; in [2], 1790 µM; in [3] it was 430 µM; in test [4], 660 µM; in [5] it was 887 µM; in [6] it was 1310 µM. Besides, the TGI in [7] amounted to 649 µM; in test [8], 1630 µM; in test [9] it was 1920 µM; in test [10], 401 µM.

For `CCn1c(-c2nonc2N)nc2cncc(C(=O)N3CC[C@H](N)C3)c21`, the GI50 in test [1] was over 25 µM; in test [2], 0.559 µM; in [3], 3.92 µM; in test [4], over 6.57 µM; in test [5], 0.966 µM; in test [6] it was over 25 µM. The GI50 was over 25 µM in test [7], over 25 µM in [8], 0.549 µM in test [9] and 17.7 µM in test [10]. Further, the TGI in [1], in test [2], in [3], in test [4], in [5] and in [6] was over 25 µM in each case. Further, the TGI was over 25 µM in test [7], over 25 µM in test [8], 9.22 µM in test [9] and over 25 µM in test [10].

On to `CCN(CC)Cc1cc2[nH]c3c4ccc(Cl)cc4ncc3c2cc1OC`, for which the GI50 was 12.4 µM and 14.5 µM in [1]; 2.29 µM and 2.54 µM in test [2]; 13.7 µM and 16 µM in test [3]; 2.07 µM and 1.68 µM in test [4]; 14.4 µM and 15.1 µM in test [5]; 2.79 µM and 1.82 µM in test [6]. Also, the GI50 in test [7] was 1.61 µM and 1.62 µM; in test [8], 1.78 µM and 1.91 µM; in test [9], 5.4 µM and 2.62 µM; in [10], 1.99 µM and 2.19 µM. The TGI in test [1] is 25.9 µM and 27.5 µM; in test [2], 7.09 µM and 8.34 µM; in test [3] it was 27.2 µM and 29.6 µM; in test [4], 4.25 µM and 3.27 µM; in test [5] it was 28.8 µM and 28.5 µM; in test [6], 6.92 µM and 3.45 µM. In addition, the TGI in test [7] was 3 µM and 2.98 µM; in [8], 5.6 µM and 4.82 µM; in [9], 11.2 µM and 5.62 µM; in [10], 4.55 µM and 5.11 µM.
